Converted amounts (≈) assume the structure as drawn.
What follows are compounds tested on host cells carrying PAmpC0-307 (AmpC L290 to R) (assay: MIC test, single-mutation plasmid PAmpC0-307). Details: not given.
Assay type: cell-based, E. coli
Experimental: (§1) Basically, a MIC determination is carried out by preparing serial dilutions of drugs in a micro-well plate and measuring host cell growth within those wells. The MIC for a particular set of host cells containing a mutant resistance gene is determined by examining the wells to locate the lowest concentration of drug which inhibited cell growth. This is capable of discriminating generally between those host cells containing mutant resistance genes conferring different degrees of resistance against the particular drug.
(§2) Serial dilutions were prepared by first determining the volume of drug solution to be added to the first well in each row to achieve the desired concentration of drug in a total volume of 1 ml. The MIC was determined for the following drugs: ampicillin, pipericillin, temocillin, cephalothin, cefuroxime, cefotaxime, ceftazidime, cefepime, imipenem, meropenem, and aztreonam. To the first well in each row 1 ml of the diluted cell suspension was added, and to all remaining wells per row 0.5 ml of the diluted cell suspension was added. For each row, the predetermined volume of a drug solution was added to the first well per row, mixed well, and then 0.5 ml of the mixed solution was transferred to the next well, and so on until the serial dilutions were completed. From the last well in each row, 0.5 ml was removed so that all well contained 0.5 ml of the drug-containing culture. Plates were sealed with BreatheEasy film (Diversified Biotech, Boston, Mass.) and maintained overnight at 37° C. with shaking. […] The MICs, in μg/ml, for each of the above-identified drugs was as follows: ampicillin, >1024; pipericillin, >1024; temocillin, 32: cephalothin, 1024; cefuroxime, 512; cefotaxime, 8; ceftazidime, 64; cefepime, 1; imipenem, 0.25; meropenem, 0.03125; and aztreonam, 16.
(§3) To determine the phenotypic effects of each of the amino acid substitutions, the A907C, A587G, A663G, T869G, and A884G mutations are being individually introduced into pAmpC0 by site-directed mutagenesis. It is expected that the A907C mutation will result in MICs that are identical to pAmpC13A. The A587G, A663G, and As84G mutations will also be introduced individually into AmpC13 to determine whether the combination of any of those mutations with A907C will result in increased resistance levels.
(§4) MICs of three of the plasmids containing the wildtype AmpC gene into which the above mutations have been introduced have been determined, as shown in Table 2 below.
`C[C@@H](O)[C@H]1C(=O)N2C(C(=O)O)=C(S[C@@H]3CN[C@H](C(=O)N(C)C)C3)[C@H](C)[C@H]12` [Meropenem, meropenem] was tested, and the “change in resistance by T869G (L290R) mutation vs wildtype pAmpC0” value was “significantly increase resistance”.

Same assay, conditions: PAmpC0-307; T869 to G; L290 to R
In the case of `CC(C)(O/N=C(\C(=O)N[C@@H]1C(=O)N2C(C(=O)[O-])=C(C[n+]3ccccc3)CS[C@H]12)c1csc(N)n1)C(=O)O` [Ceftazidime, ceftazidime], the MIC is reported as 1 mg/L.
In the case of `C[C@@H](O)[C@H]1C(=O)N2C(C(=O)O)=C(S[C@@H]3CN[C@H](C(=O)N(C)C)C3)[C@H](C)[C@H]12` [Meropenem, meropenem], the MIC is reported as 0.0312 mg/L.
With `C[C@H]1[C@H](NC(=O)/C(=N\OC(C)(C)C(=O)O)c2csc(N)n2)C(=O)N1S(=O)(=O)O` [Aztreonam, aztreonam] the MIC was 4 mg/L.

These compounds were tested on E. coli DH5α-E containing multiply mutated ampC (assay: MIC of population of E. coli host cells containing multiply mutated (DNA-shuffled) ampC). Details: Escherichia coli; lowest drug concentration that completely inhibited growth; overnight at 37° C., MH-I broth, 48-well plates, shuffled ampC library in DH5α-E.
Assay type: cell-based
Experimental: E. coli host cells prepared according to Example 4 were diluted into 100 ml MuellerHinton-IPTG (MH-T) broth. Duplicate samples of 10^0, 10^1, and 10^2 dilutions were spread onto L(tet) plates to estimate total transformants, and duplicate 10^0 and 10^1 samples were spread onto MH-I(ampicillin) plates to estimate the number of Amp^R transformants. 10 mg ampicillin was added to each culture using 1 ml of a 10 mg/ml ampicillin solution. The culture was allowed to stand overnight at 37° C. without shaking.
Next, the minimum inhibitory concentration of a number of drug was determined. An estimate of viable cells was calculated by assuming that an A600 of 1.0 is equivalent to 1.9×10^8 per ml for DH5α-E cells. A sample of the overnight culture was diluted into 70 ml of MH-I so that the number of cells per ml 10^5 per ml. The resulting suspension was used to determine MIC in 48-well microtiter plates.
as §2
For `CC(C)(O/N=C(\C(=O)N[C@@H]1C(=O)N2C(C(=O)[O-])=C(C[n+]3ccccc3)CS[C@H]12)c1csc(N)n1)C(=O)O` [Ceftazidime, ceftazidime], the MIC was 64 mg/L.
Compound `C[C@@H](O)[C@H]1C(=O)N2C(C(=O)O)=C(S[C@@H]3CN[C@H](C(=O)N(C)C)C3)[C@H](C)[C@H]12` [Meropenem, meropenem] has an MIC of 0.0312 mg/L.
`C[C@H]1[C@H](NC(=O)/C(=N\OC(C)(C)C(=O)O)c2csc(N)n2)C(=O)N1S(=O)(=O)O` [Aztreonam, aztreonam] was tested, and the MIC was 16 mg/L.

Each compound was assayed on host cells carrying pAmpC0-305 (AmpC T121 to S) (assay: MIC test, single-mutation plasmid pAmpC0-305). Details: not given.
Assay type: cell-based, E. coli
Experimental: as §1, §2, §3, §4
For `C[C@@H](O)[C@H]1C(=O)N2C(C(=O)O)=C(S[C@@H]3CN[C@H](C(=O)N(C)C)C3)[C@H](C)[C@H]12` [Meropenem, meropenem], the “change in resistance by A663G (T121S) mutation vs wildtype pAmpC0” value was “significantly increase resistance”.

Same assay, conditions: pAmpC0-305; A663 to G; T121 to S
Work on `CC(C)(O/N=C(\C(=O)N[C@@H]1C(=O)N2C(C(=O)[O-])=C(C[n+]3ccccc3)CS[C@H]12)c1csc(N)n1)C(=O)O` [Ceftazidime, ceftazidime] yielded an MIC of 2 mg/L.
`C[C@@H](O)[C@H]1C(=O)N2C(C(=O)O)=C(S[C@@H]3CN[C@H](C(=O)N(C)C)C3)[C@H](C)[C@H]12` [Meropenem, meropenem] gave an MIC of 0.0156 mg/L.
Work on `C[C@H]1[C@H](NC(=O)/C(=N\OC(C)(C)C(=O)O)c2csc(N)n2)C(=O)N1S(=O)(=O)O` [Aztreonam, aztreonam] yielded an MIC of 4 mg/L.

Each compound was assayed on E. coli JM109 carrying pAmpC0 (wildtype E. coli K12 ampC gene) (assay: MIC test, plasmid pAmpC0 (wildtype ampC gene)). Details: pAmpC0 (wildtype ampC).
Assay type: cell-based
Experimental: as §1
All experiments utilizing ampicillin resistance will be directed toward the cloned and regulated ampC gene (or mutant ampC gene) in such a way that the regulation, i.e., the amount of enzyme produced per cell, will be held constant throughout the experiments and all of the “improvement” in resistance will come from improvement in β-lactamase activity.
as §2, with “16. […]” for “16.”
With `CC(C)(O/N=C(\C(=O)N[C@@H]1C(=O)N2C(C(=O)[O-])=C(C[n+]3ccccc3)CS[C@H]12)c1csc(N)n1)C(=O)O` [Ceftazidime, ceftazidime] the MIC was 2 mg/L (≈ 3.66 µM).
Compound `C[C@H]1[C@H](NC(=O)/C(=N\OC(C)(C)C(=O)O)c2csc(N)n2)C(=O)N1S(=O)(=O)O` [Aztreonam, aztreonam] has an MIC of 4 mg/L (≈ 9.19 µM).

Same assay, conditions: wildtype ampC gene; Table 1 boxed cells
For `CC(C)(O/N=C(\C(=O)N[C@@H]1C(=O)N2C(C(=O)[O-])=C(C[n+]3ccccc3)CS[C@H]12)c1csc(N)n1)C(=O)O` [Ceftazidime, ceftazidime], the “resistance conferred by plasmid pAmpC0” value was “not”.
For `C[C@@H](O)[C@H]1C(=O)N2C(C(=O)O)=C(S[C@@H]3CN[C@H](C(=O)N(C)C)C3)[C@H](C)[C@H]12` [Meropenem, meropenem], the “resistance conferred by plasmid pAmpC0” value was “not”.
`C[C@H]1[C@H](NC(=O)/C(=N\OC(C)(C)C(=O)O)c2csc(N)n2)C(=O)N1S(=O)(=O)O` [Aztreonam, aztreonam] was tested, and the “resistance conferred by plasmid pAmpC0” value was “not”.

These compounds were tested on E. coli carrying pAmpC21B (mutant ampC) (assay: MIC test, mutant plasmid pAmpC21B). Details: after two cycles of mutagenesis and selection.
Assay type: cell-based
Experimental: (§5) Serial dilutions were prepared by first determining the volume of drug solution to be added to the first well in each row to achieve the desired concentration of drug in a total volume of 1 ml. The MIC was determined for the following drugs: ampicillin, pipericillin, temocillin, cephalothin, cefuroxime, cefotaxime, ceftazidime, cefepime, imipenem, meropenem, and aztreonam. To the first well in each row 1 ml of the diluted cell suspension was added, and to all remaining wells per row 0.5 ml of the diluted cell suspension was added. For each row, the predetermined volume of a drug solution was added to the first well per row, mixed well, and then 0.5 ml of the mixed solution was transferred to the next well, and so on until the serial dilutions were completed. From the last well in each row, 0.5 ml was removed so that all well contained 0.5 ml of the drug-containing culture. Plates were sealed with BreatheEasy film (Diversified Biotech, Boston, Mass.) and maintained overnight at 37° C. with shaking.
(§6) Plasmids were prepared from those isolates and were transformed into E. coli strain JM109.
With `CC(C)(O/N=C(\C(=O)N[C@@H]1C(=O)N2C(C(=O)[O-])=C(C[n+]3ccccc3)CS[C@H]12)c1csc(N)n1)C(=O)O` [Ceftazidime, ceftazidime] the “clinical resistance conferred by pAmpC21B” value was “clinical resistance”.

What follows are compounds tested on host cells carrying PAmpC0-308 (AmpC N295 to S) (assay: MIC test, single-mutation plasmid PAmpC0-308). Details: A644 to G.
Assay type: cell-based, E. coli
In the case of `CC(C)(O/N=C(\C(=O)N[C@@H]1C(=O)N2C(C(=O)[O-])=C(C[n+]3ccccc3)CS[C@H]12)c1csc(N)n1)C(=O)O` [Ceftazidime, ceftazidime], the MIC is reported as 2 mg/L (≈ 3.66 µM).
For `C[C@@H](O)[C@H]1C(=O)N2C(C(=O)O)=C(S[C@@H]3CN[C@H](C(=O)N(C)C)C3)[C@H](C)[C@H]12` [Meropenem, meropenem], the MIC was 0.0156 mg/L (≈ 0.0407 µM).
`C[C@H]1[C@H](NC(=O)/C(=N\OC(C)(C)C(=O)O)c2csc(N)n2)C(=O)N1S(=O)(=O)O` [Aztreonam, aztreonam] showed an MIC of 4 mg/L (≈ 9.19 µM).

These compounds were tested on E. coli JM109 carrying the plasmid vector pACSE without an ampC gene (assay: MIC test, plasmid vector pACSE without an ampC gene). Details: pACSE (vector, no ampC).
Assay type: cell-based
Experimental: as §1, §2
Plasmids were prepared from those isolates and were transformed into E. coli strain JM109. MICs conferred by each of those plasmids was determined as in Example 5.
as §4
`CC(C)(O/N=C(\C(=O)N[C@@H]1C(=O)N2C(C(=O)[O-])=C(C[n+]3ccccc3)CS[C@H]12)c1csc(N)n1)C(=O)O` [Ceftazidime, ceftazidime] gave an MIC of 0.5 mg/L (≈ 0.915 µM).
`C[C@@H](O)[C@H]1C(=O)N2C(C(=O)O)=C(S[C@@H]3CN[C@H](C(=O)N(C)C)C3)[C@H](C)[C@H]12` [Meropenem, meropenem] gave an MIC of 0.00195 mg/L (≈ 0.00509 µM).
Work on `C[C@H]1[C@H](NC(=O)/C(=N\OC(C)(C)C(=O)O)c2csc(N)n2)C(=O)N1S(=O)(=O)O` [Aztreonam, aztreonam] yielded an MIC of 0.5 mg/L (≈ 1.15 µM).

Each compound was assayed on E. coli carrying pAmpC13A (mutant ampC, S303R) (assay: MIC test, mutant plasmid pAmpC13A). Details: not given.
Assay type: cell-based
Experimental: as §5, §6
`CC(C)(O/N=C(\C(=O)N[C@@H]1C(=O)N2C(C(=O)[O-])=C(C[n+]3ccccc3)CS[C@H]12)c1csc(N)n1)C(=O)O` [Ceftazidime, ceftazidime] was tested, and the “clinical resistance conferred by pAmpC13A” value was “clinical resistance” and the “improved resistance conferred by pAmpC13A” value was “improved resistance”.
With `C[C@@H](O)[C@H]1C(=O)N2C(C(=O)O)=C(S[C@@H]3CN[C@H](C(=O)N(C)C)C3)[C@H](C)[C@H]12` [Meropenem, meropenem] the “improved resistance conferred by pAmpC13A” value was “improved resistance”.
`C[C@H]1[C@H](NC(=O)/C(=N\OC(C)(C)C(=O)O)c2csc(N)n2)C(=O)N1S(=O)(=O)O` [Aztreonam, aztreonam] was tested, and the “improved resistance conferred by pAmpC13A” value was “improved resistance”.

Reference: patent US6720142B1, “Method of determining evolutionary potential of mutant resistance genes and use thereof to screen for drug efficacy” (priority 1999, dated 2004)
